Results as given in patent US8580752B2, “Aromatic amides as potentiators of bioefficacy of anti-infective drugs” (priority 2005, dated 2013).
Converted amounts (≈) assume the structure as drawn. Like-named read-outs stand apart in the source and are kept apart here.

Key:
M. tb = test: MIC of anti infective drugs alone and with potentiators; format: cell-based, Mycobacterium tuberculosis; details: for MIC Drug + potentiator: Ciprofloxacin + potentiator; for % decrease in MIC: Ciprofloxacin + potentiator vs drug alone
Gm +ve bacteria = test: microbe, parasite or virus in culture; format: cell-based, Gram positive; details: for MIC: drug alone, Gm +ve bacteria
Gm −ve bacteria = test: microbe, parasite or virus in culture; format: cell-based, Gram negative
M. avium ATCC 49601 = test: MIC by checkerboard method; format: cell-based
M. tuberculosis H37Rv = test: MIC by checkerboard method; format: cell-based, Mycobacterium tuberculosis; details: for MIC: Mycobacterium tuberculosis, Rifampicin alone
M. tuberculosis 615 = test: MIC by checkerboard method; format: cell-based, Mycobacterium tuberculosis
Protocol: (§1) This checkerboard technique can be performed with liquid or semisolid (agar) media.
(§2) In this method the agar (Mueller Hinton agar, Middlebrook 7H10 agar) was autoclaved and allowed to cool to 55° C. to 50° C. The combination of the standard drug and the potentiator was added to the agar. Serial two fold dilutions of each of standard drug and the potentiator were prepared in appropriate solvents. In order to maintain the desired concentrations of both agar and drugs, and to rule out the effect of solvent, the volume of solvent (containing standard drug or potentiator) added to agar was kept small (i.e ≦5% of the total volume). After the agar plates have been poured and allowed to dry, the bacteria to be tested were applied to the surface of agar with a replicating device designed to deliver a standard inoculum (approx 10^4 cfu|spot). The plates were incubated at 37° C. for 24 hrs (3 weeks in case of Mycobacterium tuberculosis)
(§3) The above-mentioned checkerboard was also performed with liquid media in a microtiter plate format. This method was used to study the combination of antibacterial/antifungal/antiviral drugs with potentiator.

M. tuberculosis 611 = test: MIC by checkerboard method; format: cell-based, Mycobacterium tuberculosis
Protocol: as §1, §2, §3

[1] = test system: M. intracellure ATCC 13950; test: MIC by checkerboard method; format: cell-based
MRSA = test: MIC by checkerboard method, comparison with piperine; format: cell-based, Staphylococcus aureus; details: Tables 5A/5B; for MIC: Staphylococcus aureus, read-out: MIC Mupirocin
S aureus ATCC 29213 = test: MIC by checkerboard method; format: cell-based, Staphylococcus aureus; details: for MIC: Staphylococcus aureus, ATCC29213, Tables 5A/5B, read-out: MIC Mupirocin; for MIC Amikacin / MIC Ciprofloxacin: Tables 5A/5B
[2] = with compound of formula 1a 0.09 μg/ml
[3] = with compound of formula 1a 0.78 μg/ml
[4] = with compound of formula 1a 6.25 μg/ml
[5] = with compound of formula 1a 50.0 μg/ml
[6] = with the labelled potentiator +6.25 μg/ml
[7] = with the labelled potentiator +12.5 μg/ml
[8] = with the labelled potentiator +25.0 μg/ml
[9] = with the labelled potentiator +50.0 μg/ml
[10] = Mycobacterium tuberculosis, Rifampicin alone

CCC(/C=C/C(=O)N1CCCCC1)=C\c1ccc(OC)c(OC)c1 [4-ethyl-5-(3,4-dimethoxyphenyl)-2E,4E-pentadienoic acid piperidide]
MIC Drug + potentiator (M. tb): 0.25 to 0.5 µg/mL
% decrease in MIC (M. tb): 50%
% decrease in MIC (Gm +ve bacteria): 50-76%
MIC Drug + potentiator (Gm +ve bacteria): 0.06 to 8 µg/mL
% decrease in MIC (Gm −ve bacteria): 0-50%
MIC Drug + potentiator (Gm −ve bacteria): 0.03 to 0.25 µg/mL

CCC(/C=C/C(=O)N1CCCCC1)=C\c1cc2c(c([N+](=O)[O-])c1)OCO2 [5-(3,4-methylenedioxy-5-nitrophenyl)-4-ethyl-2E,4E-pentadienoic acid piperidide]
% decrease in MIC (Gm +ve bacteria): 0-50%
MIC Drug + potentiator (Gm +ve bacteria): 0.03 to 0.25 µg/mL

CCC(/C=C/C(=O)N1CCCC1)=C\c1ccc2c(c1)OCO2 [5-(3,4-methylenedioxyphenyl)-4-ethyl-2E,4E-pentadienoic acid pyrrolidide]
MIC of Rifampicin (M. avium ATCC 49601; [2]): 2.0 µg/mL
MIC of Rifampicin (M. avium ATCC 49601; [3]): 2.0 µg/mL
MIC of Rifampicin (M. avium ATCC 49601; [4]): 1.0 µg/mL
MIC of Rifampicin (M. avium ATCC 49601; [5]): 1.0 µg/mL
MIC of Rifampicin (M. tuberculosis H37Rv; with compound of formula 1a 0.09 μg/ml, M. tuberculosis H37Rv): 0.03 µg/mL
MIC of Rifampicin (M. tuberculosis H37Rv; with compound of formula 1a 0.78 μg/ml, M. tuberculosis H37Rv): 0.03 µg/mL
MIC of Rifampicin (M. tuberculosis H37Rv; with compound of formula 1a 6.25 μg/ml, M. tuberculosis H37Rv): 0.03 µg/mL
MIC of Rifampicin (M. tuberculosis H37Rv; with compound of formula 1a 50.0 μg/ml, M. tuberculosis H37Rv): 0.03 µg/mL
MIC of Rifampicin (M. tuberculosis 615; [2]): 0.03 µg/mL
MIC of Rifampicin (M. tuberculosis 615; [3]): 0.03 µg/mL
MIC of Rifampicin (M. tuberculosis 615; [4]): 0.03 µg/mL
MIC of Rifampicin (M. tuberculosis 615; [5]): 0.03 µg/mL
MIC of Rifampicin (M. tuberculosis 611; [2]): 0.03 µg/mL
MIC of Rifampicin (M. tuberculosis 611; [3]): 0.03 µg/mL
MIC of Rifampicin (M. tuberculosis 611; [4]): 0.03 µg/mL
MIC of Rifampicin (M. tuberculosis 611; [5]): 0.03 µg/mL
MIC of Rifampicin [1, 2]: 2.0 µg/mL
MIC of Rifampicin [1, 3]: 1.0 µg/mL
MIC of Rifampicin [1, 4]: 1.0 µg/mL
MIC of Rifampicin [1, 5]: 1.0 µg/mL

CCC(/C=C/C(=O)N1CCC(O)CC1)=C\c1ccc2c(c1)OCO2 [5-(3,4-methylenedioxyphenyl)-4-ethyl-2E,4E-pentadienoic acid-4-hydroxypiperidide]
% decrease in MIC (Gm +ve bacteria): 0-50%
MIC Drug + potentiator (Gm +ve bacteria): 0.03 to 0.25 µg/mL

CCC(CCC(=O)N1CCCCC1)Cc1ccc2c(c1)OCO2 (centres unmarked) [5-(3,4-methylenedioxyphenyl)-4-ethyl-pentanoic acid piperidide]
% decrease in MIC (Gm +ve bacteria): 0-50%
MIC Drug + potentiator (Gm +ve bacteria): 0.03 to 0.25 µg/mL

CC(/C=C/C(=O)NC(C)c1ccc(Br)cc1)=C\c1ccc2c(c1)OCO2 (centres unmarked) [5-(3,4-methylenedioxyphenyl)-4-methyl-2E,4E-pentadienoic acid-1-(4-bromophenyl)ethylamide]
MIC Drug + potentiator (M. tb): 0.25 to 0.5 µg/mL
% decrease in MIC (M. tb): 50%
% decrease in MIC (Gm +ve bacteria): 50-76%
MIC Drug + potentiator (Gm +ve bacteria): 0.06 to 8 µg/mL
% decrease in MIC (Gm −ve bacteria): 0-50%
MIC Drug + potentiator (Gm −ve bacteria): 0.03 to 0.25 µg/mL

CC(/C=C/C(=O)N1CCN(C)CC1)=C\c1ccc2c(c1)OCO2 [5-(3,4-methylenedioxyphenyl)-4-methyl-2E,4E-pentadienoic acid-N-methylpiperazide]
% decrease in MIC (Gm +ve bacteria): 50-76%
MIC Drug + potentiator (Gm +ve bacteria): 0.06 to 0.12 µg/mL

CCCCC(/C=C/C(=O)N1CCCCC1)=C\c1ccc2c(c1)OCO2 [5-(3,4-methylenedioxyphenyl)-4-n-butyl-2E,4E-pentadienoic acid piperidide]
MIC Drug + potentiator (M. tb): 0.25 to 0.5 µg/mL
% decrease in MIC (M. tb): 50%
% decrease in MIC (Gm +ve bacteria): 50-76%
MIC Drug + potentiator (Gm +ve bacteria): 0.06 to 8 µg/mL
% decrease in MIC (Gm −ve bacteria): 0-50%
MIC Drug + potentiator (Gm −ve bacteria): 0.03 to 0.25 µg/mL

CCN(CC)C(=O)/C=C/C(C)=C/c1ccc2c(c1)OCO2 [Formula 1a, R = CH3, do, R5 = R6 = C2H5, 5-(3,4-methylenedioxyphenyl)-4-methyl-2E,4E-pentadienoic acid-N,N-diethylamide]
% decrease in MIC (Gm +ve bacteria): 50-76%
MIC Drug + potentiator (Gm +ve bacteria): 0.06 to 0.12 µg/mL

CCn1cc(C(=O)O)c(=O)c2cc(F)c(N3CCNCC3)cc21 [Norfloxacin, reference compound]
MIC (Gm +ve bacteria): 0.12 to 32 µg/mL (≈ 0.376 to 100 µM)
MIC Drug alone (Gm −ve bacteria; drug alone, Gm −ve bacteria): 0.03 to 64 µg/mL

CC1COc2c(N3CCN(C)CC3)c(F)cc3c(=O)c(C(=O)O)cn1c23 (centres unmarked) [Ofloxacin, reference compound]
MIC (M. tb; Mycobacterium tuberculosis, drug alone): 0.5 to 2.5 µg/mL
MIC (Gm +ve bacteria): 12 to 32 µg/mL (≈ 33.2 to 88.6 µM)
MIC (Gm −ve bacteria; drug alone, Gm −ve bacteria, read-out: MIC Drug alone): 0.06 to 32 µg/mL (≈ 0.166 to 88.6 µM)

O=C(/C=C/C=C/c1ccc2c(c1)OCO2)N1CCCCC1 [Piperine, reference compound]
MIC (MRSA; [6]): 0.12 µg/mL
MIC (MRSA; [7]): 0.12 µg/mL
MIC (MRSA; [8]): 0.06 µg/mL
MIC (MRSA; [9]): 0.06 µg/mL
MIC Amikacin (MRSA; [6]): 4.0 µg/mL
MIC Ciprofloxacin (MRSA; [6]): 32 µg/mL
MIC Amikacin (MRSA; [7]): 4.0 µg/mL
MIC Ciprofloxacin (MRSA; [7]): 32 µg/mL
MIC Amikacin (MRSA; [8]): 4.0 µg/mL
MIC Ciprofloxacin (MRSA; [8]): 32 µg/mL
MIC Amikacin (MRSA; [9]): 4.0 µg/mL
MIC Ciprofloxacin (MRSA; [9]): 16 µg/mL
MIC Rifampicin (M. tuberculosis H37Rv; Tables 5A/5B, with the labelled potentiator +6.25 μg/ml, M tuberculosis H37Rv): 0.12 µg/mL
MIC Rifampicin (M. tuberculosis H37Rv; Tables 5A/5B, with the labelled potentiator +12.5 μg/ml, M tuberculosis H37Rv): 0.06 µg/mL
MIC Rifampicin (M. tuberculosis H37Rv; Tables 5A/5B, with the labelled potentiator +25.0 μg/ml, M tuberculosis H37Rv): 0.06 µg/mL
MIC (S aureus ATCC 29213; [6]): 0.12 µg/mL
MIC (S aureus ATCC 29213; [7]): 0.12 µg/mL
MIC (S aureus ATCC 29213; [8]): 0.06 µg/mL
MIC (S aureus ATCC 29213; [9]): 0.06 µg/mL
MIC Amikacin (S aureus ATCC 29213; [6]): 2.0 µg/mL
MIC Ciprofloxacin (S aureus ATCC 29213; [6]): 0.25 µg/mL
MIC Amikacin (S aureus ATCC 29213; [7]): 1.0 µg/mL
MIC Ciprofloxacin (S aureus ATCC 29213; [7]): 0.25 µg/mL
MIC Amikacin (S aureus ATCC 29213; [8]): 0.5 µg/mL
MIC Ciprofloxacin (S aureus ATCC 29213; [8]): 0.12 µg/mL
MIC Amikacin (S aureus ATCC 29213; [9]): 0.25 µg/mL
MIC Ciprofloxacin (S aureus ATCC 29213; [9]): 0.12 µg/mL

CO[C@H]1/C=C/O[C@@]2(C)Oc3c(C)c(O)c4c(O)c(c(/C=N/N5CCN(C)CC5)c(O)c4c3C2=O)NC(=O)/C(C)=C\C=C\[C@H](C)[C@H](O)[C@@H](C)[C@@H](O)[C@@H](C)[C@H](OC(C)=O)[C@@H]1C [Rifampicin, reference compound]
MIC (M. avium ATCC 49601; Mycobacterium avium, ATCC49601, Rifampicin alone): 2 µg/mL
MIC (M. tuberculosis H37Rv; M. tuberculosis H37Rv, read-out: MIC of Rifampicin): 0.12 µg/mL
MIC (M. tuberculosis H37Rv; Tables 5A/5B, M tuberculosis H37Rv, read-out: MIC Rifampicin): 0.12 µg/mL
MIC (M. tuberculosis 615; [10]): 0.06 µg/mL
MIC (M. tuberculosis 611; [10]): 0.06 µg/mL
MIC ([1]; Rifampicin alone): 2 µg/mL
